Results reported in PubChem BioAssay AID2060887 (Molecular Pharmacology Branch, DTP, NCI, 2025).
Several values for one entry are separate records, joined by “and”; a condition that tells them apart may be missing. Equal values may be shown once. Values belong to the compound of their own block, whether it stands above or below them.

Tested on: 782815-120-R-J1-PDC complex spheroid viability
Experiment: Anticancer human tumor 782815-120-R-J1-PDC patient-derived colon adenocarcinoma cell line growth inhibition [RAS]
Settings: for viability, T/C: stronger effect = lower value
Outline: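 Multi-cell-type spheroids: tumor cells plus HUVEC endothelial cells and mesenchymal stem cells. RAS-pathway inhibitors were combined with targeted agents, each dosed in half-log steps down from clinical Cmax, or from 10 microM when Cmax was unknown.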
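Further: spheroids exposed to compounds for 7 days before reading.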
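Wherever viability, T/C is given: 100% = DMSO vehicle control viability.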

IC50 (curve of first compound, second compound 0.00316 µM): 74.5 nM
IC50 (curve of first compound, second compound 0.01 µM): 67.8 nM
IC50 (curve of first compound, second compound 0.0316 µM): 67.5 nM
IC50 (curve of first compound, second compound 0.1 µM): 100 nM
IC50 (curve of first compound, second compound 0.316 µM): 83.8 nM
IC50 (curve of first compound, second compound 1 µM): 82.1 nM
Compound: O=C(c1ccc(F)c(F)c1Nc1ccc(I)cc1F)N1CC(O)([C@@H]2CCCCN2)C1 + C=CC(=O)N1CCN(c2nc(OCC3CCCN3C)nc3c(F)c(-c4nc(N)cc(C)c4C(F)(F)F)c(Cl)cc23)C(C)C1
viability, T/C (second compound 0.00316 µM, first compound 0.00316 µM): 91.2%
viability, T/C (second compound 0.00316 µM, first compound 0.01 µM): 87.7%
viability, T/C (second compound 0.00316 µM, first compound 0.0316 µM): 64.6%
viability, T/C (second compound 0.00316 µM, first compound 0.1 µM): 44.3%
viability, T/C (second compound 0.00316 µM, first compound 0.316 µM): 21.8%
viability, T/C (second compound 0.00316 µM, first compound 1 µM): 3.64%
viability, T/C (second compound 0.01 µM, first compound 0.00316 µM): 93.1%
viability, T/C (second compound 0.01 µM, first compound 0.01 µM): 86.5%
viability, T/C (second compound 0.01 µM, first compound 0.0316 µM): 64.6%
viability, T/C (second compound 0.01 µM, first compound 0.1 µM): 40.9%
viability, T/C (second compound 0.01 µM, first compound 0.316 µM): 21.7%
viability, T/C (second compound 0.01 µM, first compound 1 µM): 4.13%
viability, T/C (second compound 0.0316 µM, first compound 0.00316 µM): 99.3%
viability, T/C (second compound 0.0316 µM, first compound 0.01 µM): 79.5%
viability, T/C (second compound 0.0316 µM, first compound 0.0316 µM): 64.2%
viability, T/C (second compound 0.0316 µM, first compound 0.1 µM): 46.3%
viability, T/C (second compound 0.0316 µM, first compound 0.316 µM): 19%
viability, T/C (second compound 0.0316 µM, first compound 1 µM): 4.19%
viability, T/C (second compound 0.1 µM, first compound 0.00316 µM): 84.1%
viability, T/C (second compound 0.1 µM, first compound 0.01 µM): 90.1%
viability, T/C (second compound 0.1 µM, first compound 0.0316 µM): 68.3%
viability, T/C (second compound 0.1 µM, first compound 0.1 µM): 52.4%
viability, T/C (second compound 0.1 µM, first compound 0.316 µM): 20.7%
viability, T/C (second compound 0.1 µM, first compound 1 µM): 4.3%
viability, T/C (second compound 0.316 µM, first compound 0.00316 µM): 90.5%
viability, T/C (second compound 0.316 µM, first compound 0.01 µM): 88.5%
viability, T/C (second compound 0.316 µM, first compound 0.0316 µM): 66.2%
viability, T/C (second compound 0.316 µM, first compound 0.1 µM): 47.7%
viability, T/C (second compound 0.316 µM, first compound 0.316 µM): 22%
viability, T/C (second compound 0.316 µM, first compound 1 µM): 4.23%
viability, T/C (second compound 1 µM, first compound 0.00316 µM): 88.9%
viability, T/C (second compound 1 µM, first compound 0.01 µM): 93.5%
viability, T/C (second compound 1 µM, first compound 0.0316 µM): 66.1%
viability, T/C (second compound 1 µM, first compound 0.1 µM): 45.5%
viability, T/C (second compound 1 µM, first compound 0.316 µM): 23.1%
viability, T/C (second compound 1 µM, first compound 1 µM): 4.2%

IC50 (curve of first compound, second compound 0.000949 µM): 42.5 nM
IC50 (curve of first compound, second compound 0.003 µM): 43.5 nM
IC50 (curve of first compound, second compound 0.00949 µM): 67.2 nM
IC50 (curve of first compound, second compound 0.03 µM): 56.3 nM
IC50 (curve of first compound, second compound 0.0949 µM): 62.4 nM
IC50 (curve of first compound, second compound 0.3 µM): 30.1 nM
Compound: CC1(C)CCC(Nc2ncc(C(F)(F)F)c(-c3c[nH]c4c(P(C)(C)=O)c(C#N)ccc34)n2)CN1 (stereo unspecified) + CCn1c(-c2cccnc2C(C)OC)c2c3cc(ccc31)N1CCOC(CC(NC(=O)C(C(C)C)N(C)C(=O)C3(F)CCN(C(=O)C#CC(C)(C)N(C)C)CC3)C(=O)N3CCCC(N3)C(=O)OCC(C)(C)C2)C1
viability, T/C (second compound 0.000949 µM, first compound 0.000949 µM): 105%
viability, T/C (second compound 0.000949 µM, first compound 0.003 µM): 93.1%
viability, T/C (second compound 0.000949 µM, first compound 0.00949 µM): 68.5%
viability, T/C (second compound 0.000949 µM, first compound 0.03 µM): 51%
viability, T/C (second compound 0.000949 µM, first compound 0.0949 µM): 49.8%
viability, T/C (second compound 0.000949 µM, first compound 0.3 µM): 41.2%
viability, T/C (second compound 0.003 µM, first compound 0.000949 µM): 91.5%
viability, T/C (second compound 0.003 µM, first compound 0.003 µM): 89.2%
viability, T/C (second compound 0.003 µM, first compound 0.00949 µM): 81.8%
viability, T/C (second compound 0.003 µM, first compound 0.03 µM): 52.1%
viability, T/C (second compound 0.003 µM, first compound 0.0949 µM): 45.8%
viability, T/C (second compound 0.003 µM, first compound 0.3 µM): 44.3%
viability, T/C (second compound 0.00949 µM, first compound 0.000949 µM): 90.5%
viability, T/C (second compound 0.00949 µM, first compound 0.003 µM): 93.7%
viability, T/C (second compound 0.00949 µM, first compound 0.00949 µM): 83.2%
viability, T/C (second compound 0.00949 µM, first compound 0.03 µM): 54.1%
viability, T/C (second compound 0.00949 µM, first compound 0.0949 µM): 51.6%
viability, T/C (second compound 0.00949 µM, first compound 0.3 µM): 44.6%
viability, T/C (second compound 0.03 µM, first compound 0.000949 µM): 86.1%
viability, T/C (second compound 0.03 µM, first compound 0.003 µM): 88.8%
viability, T/C (second compound 0.03 µM, first compound 0.00949 µM): 78.4%
viability, T/C (second compound 0.03 µM, first compound 0.03 µM): 54.9%
viability, T/C (second compound 0.03 µM, first compound 0.0949 µM): 44.1%
viability, T/C (second compound 0.03 µM, first compound 0.3 µM): 47.6%
viability, T/C (second compound 0.0949 µM, first compound 0.000949 µM): 107%
viability, T/C (second compound 0.0949 µM, first compound 0.003 µM): 83.6%
viability, T/C (second compound 0.0949 µM, first compound 0.00949 µM): 70.3%
viability, T/C (second compound 0.0949 µM, first compound 0.03 µM): 56.8%
viability, T/C (second compound 0.0949 µM, first compound 0.0949 µM): 45.5%
viability, T/C (second compound 0.0949 µM, first compound 0.3 µM): 39.9%
viability, T/C (second compound 0.3 µM, first compound 0.000949 µM): 83.9%
viability, T/C (second compound 0.3 µM, first compound 0.003 µM): 86.6%
viability, T/C (second compound 0.3 µM, first compound 0.00949 µM): 65%
viability, T/C (second compound 0.3 µM, first compound 0.03 µM): 52.2%
viability, T/C (second compound 0.3 µM, first compound 0.0949 µM): 39.4%
viability, T/C (second compound 0.3 µM, first compound 0.3 µM): 36.3%

IC50 (curve of compound): > 10000 nM
Compound: CC(C)NCC(C(=O)N1CCN(c2ncnc3c2C(C)CC3O)CC1)c1ccc(Cl)cc1 (stereo unspecified)
viability, T/C (compound 0.0316 µM): 106% [middle of 4 runs]
viability, T/C (compound 0.1 µM): 98.9% [middle of 4 runs]
viability, T/C (compound 0.316 µM): 104% (2×) and 101% and 91.7%
viability, T/C (compound 1 µM): 96% [middle of 4 runs]
viability, T/C (compound 3.16 µM): 101% [middle of 4 runs]
viability, T/C (compound 10 µM): 104% [middle of 4 runs]
